Test: Treatment-emergent adverse events
Format: in vivo, human (pediatric patients)
Excerpt: Patients who met the inclusion/exclusion criteria were randomized to receive topical fluocinonide either qd or bid. Patients/guardians were instructed to apply a thin layer of the study product to all treatable areas once or twice daily for 14 days. If the areas to be treated were hairy, patients/guardians were instructed to part the hair to allow direct contact between the study product and the lesion. Patients/guardians were also instructed not to apply study product to lesions of the face, groin, perianal area, and axillae. At the end of Weeks 1, 2, and 4, patients returned to the study site in order for the investigator to perform designated evaluations, review treatment compliance and concomitant therapy, and to collect information regarding adverse events.
Adverse events were coded using MedDRA terminology (a standard dictionary of terms used to clarify adverse events) and were described according to their intensity, duration and relationship to the study product.

## CC(=O)OCC(=O)[C@@]12OC(C)(C)O[C@@H]1C[C@H]1[C@@H]3C[C@H](F)C4=CC(=O)C=C[C@]4(C)[C@@]3(F)[C@@H](O)C[C@@]12C [Fluocinonide, pregna-1,4-diene-3,20-dione,21-(acetyloxy)-6,9-difluoro-11-hydroxy-16, 17-[(1-methylethylidene)bis(oxy)]-,(6α., 11β,16α)-]
Cohort 1, bid
  Burning Sensation NOS: 2 (11.8) Number (%)
  Dermatitis diaper: 0 (0) Number (%)
  Folliculitis: 1 (5.9) Number (%)
  Gastroenteritis NOS: 0 (0) Number (%)
  Headache: 3 (17.6) Number (%)
  Pain NOS: 2 (11.8) Number (%)
  Pyrexia: 0 (0) Number (%)
  Total no. of patients with AEs: 9 (52.9) Number (%)
  Upper respiratory tract infection: 0 (0) Number (%)
Cohort 1, qd
  Burning Sensation NOS: 0 (0) Number (%)
  Dermatitis diaper: 0 (0) Number (%)
  Folliculitis: 2 (12.5) Number (%)
  Gastroenteritis NOS: 0 (0) Number (%)
  Headache: 1 (6.3) Number (%)
  Pain NOS: 0 (0) Number (%)
  Pyrexia: 0 (0) Number (%)
  Total no. of patients with AEs: 6 (37.5) Number (%)
  Upper respiratory tract infection: 0 (0) Number (%)
Cohort 2, bid
  Burning Sensation NOS: 0 (0) Number (%)
  Dermatitis diaper: 0 (0) Number (%)
  Folliculitis: 0 (0) Number (%)
  Gastroenteritis NOS: 0 (0) Number (%)
  Headache: 0 (0) Number (%)
  Pain NOS: 0 (0) Number (%)
  Pyrexia: 0 (0) Number (%)
  Total no. of patients with AEs: 6 (37.5) Number (%)
  Upper respiratory tract infection: 1 (6.3) Number (%)
Cohort 2, qd
  Burning Sensation NOS: 0 (0) Number (%)
  Dermatitis diaper: 0 (0) Number (%)
  Folliculitis: 1 (6.3) Number (%)
  Gastroenteritis NOS: 0 (0) Number (%)
  Headache: 0 (0) Number (%)
  Pain NOS: 1 (6.3) Number (%)
  Pyrexia: 0 (0) Number (%)
  Total no. of patients with AEs: 4 (25.0) Number (%)
  Upper respiratory tract infection: 0 (0) Number (%)
Cohort 3, bid
  Burning Sensation NOS: 0 (0) Number (%)
  Dermatitis diaper: 0 (0) Number (%)
  Folliculitis: 0 (0) Number (%)
  Gastroenteritis NOS: 0 (0) Number (%)
  Headache: 0 (0) Number (%)
  Pain NOS: 0 (0) Number (%)
  Pyrexia: 0 (0) Number (%)
  Total no. of patients with AEs: 2 (13.3) Number (%)
  Upper respiratory tract infection: 0 (0) Number (%)
Cohort 3, qd
  Burning Sensation NOS: 0 (0) Number (%)
  Dermatitis diaper: 0 (0) Number (%)
  Folliculitis: 0 (0) Number (%)
  Gastroenteritis NOS: 0 (0) Number (%)
  Headache: 0 (0) Number (%)
  Pain NOS: 0 (0) Number (%)
  Pyrexia: 0 (0) Number (%)
  Total no. of patients with AEs: 3 (20) Number (%)
  Upper respiratory tract infection: 0 (0) Number (%)
Cohort 4, bid
  Burning Sensation NOS: 0 (0) Number (%)
  Dermatitis diaper: 0 (0) Number (%)
  Folliculitis: 0 (0) Number (%)
  Gastroenteritis NOS: 0 (0) Number (%)
  Headache: 0 (0) Number (%)
  Pain NOS: 0 (0) Number (%)
  Pyrexia: 2 (13.3) Number (%)
  Total no. of patients with AEs: 7 (46.7) Number (%)
  Upper respiratory tract infection: 1 (6.7) Number (%)
Cohort 4, qd
  Burning Sensation NOS: 0 (0) Number (%)
  Dermatitis diaper: 2 (12.5) Number (%)
  Folliculitis: 0 (0) Number (%)
  Gastroenteritis NOS: 2 (12.5) Number (%)
  Headache: 0 (0) Number (%)
  Pain NOS: 0 (0) Number (%)
  Pyrexia: 2 (12.5) Number (%)
  Total no. of patients with AEs: 8 (50.0) Number (%)
  Upper respiratory tract infection: 2 (12.5) Number (%)
All treated patients, 45 of 126
  Patients who reported at least one treatment-emergent adverse event (TEAE): 35.7%
Whole study
  Deaths or other serious adverse events: No deaths or other serious adverse events

Reference: patent publication US20070179121A1, “Method of treating pediatric patients with corticosteroids” (priority 2006, published 2007)
